Our source for the inhibition, disease progression and overall survival values is patent publication US9856268B2, “Lactam kinase inhibitors” (G1 Therapeutics, Inc., priority 2012, dated 2018).

One assay has as its target T1, Aurora -A (Homo sapiens, UniProt O14965).
T1 sequence (O14965 1-403): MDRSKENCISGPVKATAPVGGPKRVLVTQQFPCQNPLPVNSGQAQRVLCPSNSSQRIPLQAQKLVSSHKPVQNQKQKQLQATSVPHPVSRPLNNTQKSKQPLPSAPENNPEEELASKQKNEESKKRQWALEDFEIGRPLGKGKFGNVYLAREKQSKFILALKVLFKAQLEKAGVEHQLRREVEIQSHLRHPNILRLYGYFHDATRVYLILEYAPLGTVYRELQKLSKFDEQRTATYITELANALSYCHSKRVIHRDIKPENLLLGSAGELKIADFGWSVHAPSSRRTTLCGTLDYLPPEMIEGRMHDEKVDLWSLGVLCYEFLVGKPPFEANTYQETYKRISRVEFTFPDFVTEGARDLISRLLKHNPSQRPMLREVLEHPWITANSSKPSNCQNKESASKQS
The experiment in a line: Kinase electrophoretic mobility shift assay, Aurora -A. The conditions noted are these: compounds tested at 10 μM, average of n = 2, ATP at apparent Km; read-out: Aurora -A activity (percent inhibition). Format: biochemical. On the procedure:
(§1) Kinase activity is measured in vitro using electrophoretic mobility shift assay. The kinase reactions are assembled in 384 well plates in total volume of 25 μL. The reactions comprise: purified recombinant kinase enzyme, test compound, ATP (at apparent Km for each kinase), and fluorescently labeled peptide substrate. The reaction buffer composed of: 100 mM HEPES, pH7.5; 5 mM MgCl2; 1 mM DTT; 0.1% bovine serum albumin; 0.01% Triton X-100, and 1% DMSO (from compound). The reactions were incubated at room temperature for indicated time and quenched by addition of 45 μL of termination buffer (100 mM HEPES pH7.5; 0.01% Triton X-100; 30 mM EDTA). Substrate and product peptides in each sample were electrophoretically separated and detected using 12 channel LabChip3000® microfluidic capillary electrophoresis instrument (Caliper Life Sciences). The change in the relative fluorescence intensities of substrate and product peaks (reflecting enzyme activity) was measured. Capillary electrophoregramms were analyzed using HTS Well Analyzer software (Caliper Life Sciences). The kinase activity in each sample was determined as “product to sum” ratio (PSR):P/(S+P), where P is the peak height of the product peptide and S is the peak height of the substrate peptide. Negative control samples (0%-inhibition in the absence of inhibitor) and positive control samples (100%-inhibition, in the presence of 20 mM EDTA) were assembled in replicates of four and were used to calculate %-inhibition values for each compound at each concentration. Percent inhibition (Pinh) was determined using following equation: Pinh=(PSR0%−PSRinh)/(PSR0%−PSR100%)*100, where PSRinh is the product-sum ratio in the presence of inhibitor, PSR0% is the average product-sum ration in the absence of inhibitor and PSR100% is the average product-sum ratio in 100%-inhibition control samples. The IC50 values of reference inhibitors were determined by fitting the inhibition curves by a 4 parameter sigmoid dose-response model using XLfit 4 software (IDBS).

The next assay concerns the target T2, DYRK3 (Homo sapiens, UniProt O43781).
T2 sequence (O43781 1-588): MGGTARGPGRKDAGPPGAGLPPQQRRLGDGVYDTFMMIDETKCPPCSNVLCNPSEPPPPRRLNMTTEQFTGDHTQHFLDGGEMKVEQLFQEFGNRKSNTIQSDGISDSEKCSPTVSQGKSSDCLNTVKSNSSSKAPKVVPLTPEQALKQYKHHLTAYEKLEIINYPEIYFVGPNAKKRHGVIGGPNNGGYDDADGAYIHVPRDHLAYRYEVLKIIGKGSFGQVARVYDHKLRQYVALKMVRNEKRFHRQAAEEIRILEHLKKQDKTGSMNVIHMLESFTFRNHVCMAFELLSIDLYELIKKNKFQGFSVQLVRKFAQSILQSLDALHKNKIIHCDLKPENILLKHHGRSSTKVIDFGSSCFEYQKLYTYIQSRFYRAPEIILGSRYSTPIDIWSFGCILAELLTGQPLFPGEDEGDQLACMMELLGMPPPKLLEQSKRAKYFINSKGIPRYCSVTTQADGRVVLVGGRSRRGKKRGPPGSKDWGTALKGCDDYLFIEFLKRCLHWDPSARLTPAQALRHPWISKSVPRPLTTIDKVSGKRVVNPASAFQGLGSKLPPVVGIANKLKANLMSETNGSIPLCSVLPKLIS
The experiment in a line: Kinase electrophoretic mobility shift assay, DYRK3. In kind it is biochemical. The conditions noted are these: compounds tested at 10 μM, average of n = 2, ATP at apparent Km; read-out: DYRK3 activity (percent inhibition). As to the method:
as §1

The target of the next assay is FMS (Homo sapiens, UniProt P07333). In words: Kinase electrophoretic mobility shift assay, FMS. In kind it is biochemical. The conditions noted are these: compounds tested at 10 μM, average of n = 2, ATP at apparent Km; read-out: FMS activity (percent inhibition). As to the method: as §1
The next assay concerns the target GSK-3 beta (Homo sapiens, UniProt P49841). In words: Kinase electrophoretic mobility shift assay, GSK-3 beta. In kind it is biochemical. Particulars: compounds tested at 10 μM, average of n = 2, ATP at apparent Km; read-out: GSK-3 beta activity (percent inhibition). On the procedure: as §1
A further assay addresses T3, HIPK4 (Homo sapiens, UniProt Q8NE63).
T3 sequence (Q8NE63 1-616): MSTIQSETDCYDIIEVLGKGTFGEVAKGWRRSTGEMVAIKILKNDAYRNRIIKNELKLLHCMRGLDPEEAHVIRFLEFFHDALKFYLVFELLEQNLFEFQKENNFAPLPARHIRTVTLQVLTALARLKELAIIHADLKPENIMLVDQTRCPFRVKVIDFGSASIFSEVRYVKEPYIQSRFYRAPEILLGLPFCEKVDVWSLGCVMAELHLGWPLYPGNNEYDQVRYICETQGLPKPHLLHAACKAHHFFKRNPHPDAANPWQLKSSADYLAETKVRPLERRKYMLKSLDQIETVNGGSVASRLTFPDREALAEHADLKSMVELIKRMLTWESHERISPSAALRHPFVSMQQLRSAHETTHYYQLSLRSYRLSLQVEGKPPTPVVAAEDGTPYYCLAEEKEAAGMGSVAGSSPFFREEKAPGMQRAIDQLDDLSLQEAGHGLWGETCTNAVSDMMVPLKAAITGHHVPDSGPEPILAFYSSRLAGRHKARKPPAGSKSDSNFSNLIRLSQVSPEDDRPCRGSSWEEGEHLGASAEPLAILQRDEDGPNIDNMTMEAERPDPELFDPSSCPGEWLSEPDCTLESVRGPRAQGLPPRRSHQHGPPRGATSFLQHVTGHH
In words: Kinase electrophoretic mobility shift assay, HIPK4. In kind it is biochemical. The conditions noted are these: compounds tested at 10 μM, average of n = 2, ATP at apparent Km; read-out: HIPK4 activity (percent inhibition). On the procedure:
as §1

Another assay concerns the target JNK2 (Homo sapiens, UniProt P45984). In words: Kinase electrophoretic mobility shift assay, JNK2. In kind it is biochemical. The conditions noted are these: compounds tested at 10 μM, average of n = 2, ATP at apparent Km; read-out: JNK2 activity (percent inhibition). On the procedure:
as §1

For another assay, the target named is MAPK3 (Homo sapiens, UniProt P27361). The experiment in a line: Kinase electrophoretic mobility shift assay, MAPK3. In kind it is biochemical. Particulars: compounds tested at 10 μM, average of n = 2, ATP at apparent Km; read-out: MAPK3 activity (percent inhibition). On the procedure: as §1
Another assay concerns the target MNK2 (Homo sapiens, UniProt Q9HBH9). The experiment in a line: Kinase electrophoretic mobility shift assay, MNK2. In kind it is biochemical. The conditions noted are these: compounds tested at 10 μM, average of n = 2, ATP at apparent Km; read-out: MNK2 activity (percent inhibition). As to the method: as §1
The next assay concerns the target P38 beta (Homo sapiens, UniProt Q15759). In words: Kinase electrophoretic mobility shift assay, P38 beta. Format: biochemical. The conditions noted are these: compounds tested at 10 μM, average of n = 2, ATP at apparent Km; read-out: P38 beta activity (percent inhibition). On the procedure:
as §1

The subject of assay [1] is treatment-refractory metastatic colorectal cancer. Particulars: single agent, patients with treatment-refractory metastatic colorectal cancer, phase III; cited from earlier work.

Structures are written as SMILES.

Chain of MAPK3 (P27361 whole entry): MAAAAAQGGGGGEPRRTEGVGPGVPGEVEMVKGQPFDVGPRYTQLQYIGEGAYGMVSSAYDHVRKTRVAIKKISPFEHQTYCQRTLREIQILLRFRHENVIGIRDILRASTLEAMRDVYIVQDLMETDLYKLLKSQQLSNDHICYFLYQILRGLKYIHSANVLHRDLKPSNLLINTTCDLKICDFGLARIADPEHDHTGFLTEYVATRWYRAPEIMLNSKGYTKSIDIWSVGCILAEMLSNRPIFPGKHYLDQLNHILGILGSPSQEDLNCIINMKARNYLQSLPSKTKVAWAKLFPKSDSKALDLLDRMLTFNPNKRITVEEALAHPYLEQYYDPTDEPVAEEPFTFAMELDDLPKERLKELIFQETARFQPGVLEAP
Chain of FMS (P07333 20-972, species assumed): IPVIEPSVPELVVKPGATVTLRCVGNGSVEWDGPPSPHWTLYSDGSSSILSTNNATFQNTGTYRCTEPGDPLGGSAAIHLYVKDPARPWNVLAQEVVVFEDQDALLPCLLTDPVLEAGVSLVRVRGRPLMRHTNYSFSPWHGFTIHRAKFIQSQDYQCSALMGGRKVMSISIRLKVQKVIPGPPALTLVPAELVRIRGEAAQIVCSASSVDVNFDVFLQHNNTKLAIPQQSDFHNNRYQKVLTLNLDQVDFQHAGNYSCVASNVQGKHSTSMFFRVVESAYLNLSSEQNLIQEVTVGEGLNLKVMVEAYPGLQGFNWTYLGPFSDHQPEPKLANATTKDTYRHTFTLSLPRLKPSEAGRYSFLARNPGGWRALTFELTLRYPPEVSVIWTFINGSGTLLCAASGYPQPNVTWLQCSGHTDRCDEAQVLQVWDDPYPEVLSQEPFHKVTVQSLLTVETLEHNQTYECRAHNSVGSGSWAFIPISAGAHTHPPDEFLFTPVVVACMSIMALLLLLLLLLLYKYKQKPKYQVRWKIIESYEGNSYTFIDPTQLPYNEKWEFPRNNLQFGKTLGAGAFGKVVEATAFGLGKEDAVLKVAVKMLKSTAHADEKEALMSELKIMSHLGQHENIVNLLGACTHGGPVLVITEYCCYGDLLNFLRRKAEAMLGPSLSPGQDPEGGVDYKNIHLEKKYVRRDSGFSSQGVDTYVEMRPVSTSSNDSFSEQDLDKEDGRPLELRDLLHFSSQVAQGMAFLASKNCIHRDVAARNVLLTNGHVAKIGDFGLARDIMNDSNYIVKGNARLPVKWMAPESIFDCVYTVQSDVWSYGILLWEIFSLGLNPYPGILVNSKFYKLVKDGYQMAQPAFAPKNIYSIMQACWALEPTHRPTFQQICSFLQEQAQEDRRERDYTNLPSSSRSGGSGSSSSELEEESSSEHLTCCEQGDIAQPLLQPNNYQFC
Chain of JNK2 (P45984 whole entry, species assumed): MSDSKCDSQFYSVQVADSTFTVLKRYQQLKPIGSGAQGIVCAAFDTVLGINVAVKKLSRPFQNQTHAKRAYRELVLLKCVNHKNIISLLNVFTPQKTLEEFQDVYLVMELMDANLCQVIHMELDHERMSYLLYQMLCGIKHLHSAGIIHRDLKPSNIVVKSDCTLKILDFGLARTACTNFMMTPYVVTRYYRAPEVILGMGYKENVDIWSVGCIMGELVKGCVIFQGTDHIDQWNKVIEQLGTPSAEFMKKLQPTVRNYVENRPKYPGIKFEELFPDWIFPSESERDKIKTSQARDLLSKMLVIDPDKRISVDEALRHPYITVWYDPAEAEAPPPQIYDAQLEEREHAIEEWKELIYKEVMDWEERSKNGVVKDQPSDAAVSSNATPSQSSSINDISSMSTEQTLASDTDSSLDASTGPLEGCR
Chain of GSK-3 beta (P49841 whole entry, species assumed): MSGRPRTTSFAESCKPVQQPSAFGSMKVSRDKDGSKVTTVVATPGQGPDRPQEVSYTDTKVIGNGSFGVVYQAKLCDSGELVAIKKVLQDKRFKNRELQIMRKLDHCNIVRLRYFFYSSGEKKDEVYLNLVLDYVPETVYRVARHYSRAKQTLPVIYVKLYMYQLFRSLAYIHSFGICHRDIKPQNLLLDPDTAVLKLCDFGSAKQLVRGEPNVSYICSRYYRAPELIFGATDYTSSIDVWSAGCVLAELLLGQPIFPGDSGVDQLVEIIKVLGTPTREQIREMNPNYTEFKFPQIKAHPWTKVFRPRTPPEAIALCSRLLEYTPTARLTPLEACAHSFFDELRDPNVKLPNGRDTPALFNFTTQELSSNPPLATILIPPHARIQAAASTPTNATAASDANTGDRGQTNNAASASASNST
Chain of MNK2 (Q9HBH9 whole entry, species assumed): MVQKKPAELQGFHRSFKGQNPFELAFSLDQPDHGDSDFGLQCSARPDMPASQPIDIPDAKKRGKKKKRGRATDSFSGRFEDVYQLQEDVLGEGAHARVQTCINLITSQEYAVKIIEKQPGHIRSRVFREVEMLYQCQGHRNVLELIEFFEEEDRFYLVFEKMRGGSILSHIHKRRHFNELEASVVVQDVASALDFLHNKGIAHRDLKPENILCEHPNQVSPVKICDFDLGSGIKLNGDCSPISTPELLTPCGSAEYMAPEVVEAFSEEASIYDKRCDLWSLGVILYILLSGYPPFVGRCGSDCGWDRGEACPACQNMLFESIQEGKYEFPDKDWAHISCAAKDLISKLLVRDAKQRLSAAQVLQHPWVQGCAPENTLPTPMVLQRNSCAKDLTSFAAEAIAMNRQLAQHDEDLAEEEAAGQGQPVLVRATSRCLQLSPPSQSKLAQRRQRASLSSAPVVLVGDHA
Chain of P38 beta (Q15759 whole entry): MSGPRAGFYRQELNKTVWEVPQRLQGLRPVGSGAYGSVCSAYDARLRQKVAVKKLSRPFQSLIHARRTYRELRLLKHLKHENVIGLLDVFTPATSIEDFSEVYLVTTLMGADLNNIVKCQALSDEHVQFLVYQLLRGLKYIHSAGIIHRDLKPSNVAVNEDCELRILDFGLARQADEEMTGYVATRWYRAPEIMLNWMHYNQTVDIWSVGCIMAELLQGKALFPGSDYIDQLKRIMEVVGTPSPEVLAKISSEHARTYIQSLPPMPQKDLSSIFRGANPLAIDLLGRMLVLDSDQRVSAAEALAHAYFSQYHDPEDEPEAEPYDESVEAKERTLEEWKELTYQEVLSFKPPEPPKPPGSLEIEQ

As for `Cc1ccccc1-c1c2n(c3nc(Nc4ccc(N5CCOCC5)cc4)ncc13)CCNC2=O` [Compd 1], the inhibition at 10 µM at Aurora -A, on DYRK3, on FMS, on GSK-3 beta, at HIPK4 and at JNK2 was under 50% in each case. The inhibition at 10 µM on MAPK3, at MNK2 and on P38 beta was under 50% throughout.
For the compound `Cc1ccccc1-c1c2n(c3nc(N[C@H]4CC[C@H](O)CC4)ncc13)CCNC2=O` [Compd 2], the inhibition (as a rule, the share of the control response that was lost under treatment) at 10 µM on Aurora -A is under 50%; on DYRK3 it was under 50%; at FMS, under 50%; on GSK-3 beta, under 50%; on HIPK4 it was under 50%; at JNK2, 71 to 90%. In addition, the inhibition at 10 µM at MAPK3 was 50 to 70%; at MNK2, under 50%; at P38 beta, under 50%.
Consider `O=C1NCCn2c1cc1cnc(N[C@H]3CC[C@H](O)CC3)nc12` [Compd 3], for which the inhibition at 10 µM is under 50% at Aurora -A; 71 to 90% at DYRK3; under 50% on FMS; 71 to 90% on GSK-3 beta; 71 to 90% at HIPK4; over 90% on JNK2. Also, the inhibition at 10 µM is 71 to 90% on MAPK3, under 50% on MNK2 and under 50% on P38 beta.
`CC1(C)CNC(=O)c2cc3cnc(N[C@H]4CC[C@H](O)CC4)nc3n21` [Compd 4]: the inhibition at 10 µM at Aurora -A is 50 to 70%; at DYRK3, 71 to 90%; at FMS, over 90%; at GSK-3 beta, over 90%; on HIPK4, over 90%; on JNK2, over 90%. Besides, the results for the inhibition at 10 µM at MAPK3, at MNK2 and at P38 beta were 71 to 90%, 71 to 90% and 50 to 70%, respectively.
Regarding `CCC1Cn2c(cc3cnc(N[C@H]4CC[C@H](O)CC4)nc32)C(=O)N1` (some centres unmarked) [Compd 5], the inhibition at 10 µM on Aurora -A is under 50%; at DYRK3, 71 to 90%; at FMS, 71 to 90%; on GSK-3 beta, over 90%; at HIPK4, over 90%; on JNK2, over 90%. Also, the inhibition at 10 µM on MAPK3 was in the range of 71 to 90%; at MNK2, 50 to 70%; at P38 beta it was 50 to 70%.
With `O=C1NC2(CCCC2)Cn2c1cc1cnc(N[C@H]3CC[C@H](O)CC3)nc12` [Compd 6], the inhibition at 10 µM at Aurora -A was 50 to 70%; on DYRK3, 71 to 90%; at FMS it was 50 to 70%; on GSK-3 beta, over 90%; at HIPK4, over 90%; on JNK2 it was over 90%. Also, the inhibition at 10 µM at MAPK3 was over 90%; at MNK2 it was 50 to 70%; at P38 beta, 50 to 70%.
Take `O=C1NCC2(CCCC2)n2c1cc1cnc(N[C@H]3CC[C@H](O)CC3)nc12` [Compd 7]: the inhibition at 10 µM was over 90% on Aurora -A; over 90% at DYRK3; 71 to 90% on FMS; over 90% on GSK-3 beta; over 90% on HIPK4; over 90% on JNK2. For the same compound, the inhibition at 10 µM was over 90% on MAPK3, 71 to 90% on MNK2 and 71 to 90% at P38 beta.
Regarding `CNC(=O)c1cc(Oc2ccc(NC(=O)Nc3ccc(Cl)c(C(F)(F)F)c3)c(F)c2)ccn1` [regorafenib], in assay [1], the disease progression result is “delayed disease progression” and the overall survival result is “significantly improved overall survival”.
